# From US20250115642A1, “PEPTIDE HAVING ANTIBACTERIAL, ANTI-INFLAMMATORY OR TISSUE REGENERATION ABILITY AND USE THEREOF” (priority 2022, published 2025)
# What was measured:
# IL-6 = assay: ELISA of IL-6 secreted by LPS-treated THP-1 macrophages; format: cell-based, human; settings: 1 μg/ml LPS, 200 μM peptide, 24 hours, compared with 20 ng/ml IL-4
# Method: (§1) Anti-inflammatory activity was verified using human monocyte cell lines (THP-1, ATCC, TIB-202). In the case of monocyte cell lines, PMA (Phorbol 12-myristate 13-acetate, Merck, P1585) was inoculated to differentiate monocytes into macrophages, and then treated with 1 μg/ml LPS (lipopolysaccharide, Merck, L3024), an inflammation inducer. […] The amount of pro-inflammatory cytokines IL-6 (R&D system, D6050) and TNF-α secreted by cells present in the medium was confirmed through ELISA (enzyme-linked immunosorbent assay).
# TNF-α = assay: ELISA of TNF-α secreted by LPS-treated THP-1 macrophages; format: cell-based, human; settings: 1 μg/ml LPS, 200 μM peptide, 24 hours, compared with 20 ng/ml IL-4
# Method: as §1
# phosphorylated NF-κB = assay: Western blot of pNFkB in LPS-treated Raw264.7 cells; format: cell-based, mouse
# Method: (§2) Raw264.7 cells were purchased from ATCC (American Type Culture Collection) and used in the experiment. Raw264.7 cells were cultured in a CO2 incubator at 37° C. supplied with 5% CO2 and 95% air using DMEM (Dulbecco's modified Eagle medium) medium supplemented with 10% FBS and 100 units/ml antibiotics (penicillin-streptomycin).
# (§3) Raw264.7 cells were treated with 200 μM of the peptide having the amino acid sequence of SEQ ID NO: 1 for 30 minutes, and then treated with 1 μg/ml LPS (lipopolysaccharide, Merck, L3024). After 8 hours, the treated cells were collected, protease inhibitor cocktail and phosphatase inhibitor cocktail were added to Radioimmunoprecipitation assay buffer (RIPA buffer solution, Thermo Fisher, 89900), and the cells were treated to lyse the cells. After centrifuging the cell lysate and collecting the supernatant, the concentration of the cell lysate was measured using a bicinchoninic acid assay (BCA assay, Thermo Fisher, 23227), and RIPA buffer solution was added thereto to prepare the cell lysate to a final concentration of 5 mg/mL. Then, it was mixed with a buffer solution including 1M Tris-HCl (pH 6.8), 50% glycerol, and 10% SDS in a 4:1 ratio, and then sodium dodecyl sulfate-poly acrylamide gel electrophoresis (SDS-PAGE) was performed. […]
# phosphorylated IκBα = assay: Western blot of plkBa in LPS-treated Raw264.7 cells; format: cell-based, mouse
# Method: as §2, §3
# [1] = system: Aggregatibacter actinomycetemcomitans; assay: Inhibiting growth of periodontitis-causing bacteria (absorbance 600 nm); format: cell-based; settings: Aa
# Method: (§4) To evaluate the antibacterial activity, representative periodontitis-causing bacteria, Aggregatibacter actinomycetemcomitans and Porphyromonas gingivalis, were used. Each bacterium was inoculated into BHI (brain heart infusion) liquid medium and cultured in an anaerobic incubator at 37° C. and 120 rpm for 48 hours. After incubation, the peptide having the amino acid sequence of SEQ ID NO: 1 was treated at 100 μM, 250 μM, and 500 μM. As a positive control, minocycline (Merck, M9511) was inoculated at 500 ng/ml, and then 24 hours later, the absorbance was measured at 600 nm using a spectrophotometer to confirm a degree of bacterial growth.
# Porphyromonas gingivalis = assay: as above; format: cell-based; settings: Pg
# Method: as §4
# [2] = system: artificial biofilm of Aggregatibacter actinomycetemcomitans and Porphyromonas gingivalis; assay: Antibacterial activity in artificial biofilm on titanium disk (LIVE/DEAD staining); format: cell-based; settings: 24 hours after inoculation; 50 μg/ml = 29 μM
# Method: Periodontitis-causing bacteria exist in the oral cavity in a form of a biofilm, and thus in order to imitate this, an artificial biofilm was created on the surface of a titanium disk using A. a. (Aggregatibacter actinomycetemcomitans) and P. g. (Porphyromonas gingivalis) bacteria. Saliva and bacteria were mixed on a titanium disk, placed in BHI liquid medium, and cultured in an anaerobic incubator at 37° C. After 72 hours, 50 μg/ml (=29 μM), 100 μg/ml (=58 μM), 250 μg/ml (=144 μM), and 500 μg/ml (=288 μM) peptides and 1 μg/ml minocycline as a positive control were inoculated. 24 hours later after inoculation, a titanium disk with biofilm formed on the surface was obtained and the biofilm was stained using the Filmtracer LIVE/DEAD Biofilm Viability Kit (Thermo Fisher, L10316). Live bacteria are stained green, and dead bacteria are stained red. The titanium disk was observed using a confocal scanning fluorescence microscope.
# Raw264.7 cells = assay: Cell penetration ability at the cellular level (confocal microscopy); format: cell-based, mouse; settings: Rhodamine B labeled peptide, 50, 100 and 200 μM, 1 hour
# Method: Raw264.7 cells were distributed 3×10^4 each into a 4-well chamber and cultured in DMEM medium for 24 hours to stabilize the cells. After 24 hours, fluorescently labeled peptide was added to the medium at concentrations of 50, 100, and 200 μM. After 1 hour of peptide treatment, a degree of penetration of the peptide into cells was observed using a confocal scanning fluorescence microscope. Cell nuclei were stained using 4′,6-diamidino-2-phenylindole (DAPI, Thermo Fisher, D1306). DIC represents the case observed under a general microscope, Nuceli represents the nucleus of a cell, Peptide represents the degree of penetration of a peptide bound to rhodamine B, and MERGE represents an image that overlaps images of DIC, Nuclei, and the penetrated peptide.
# [3] = 200 μM peptide for 30 minutes, then 1 μg/ml LPS, 8 hours
sequence,measurement,setting,value
"GKCSTRGRKSSRRKK (PEPTIDE HAVING ANTIBACTERIAL, …ON OR TISSUE …ON) [SEQ ID NO: 1, 15-mer peptide having antibacterial, anti-inflammatory and cell penetrating ability]",IL-6 value,IL-6,lowered to a similar level as when treated with IL-4
same,TNF-α value,TNF-α,lowered to a similar level as when treated with IL-4
same,expression of pNFκB,phosphorylated NF-κB; [3],suppressed
same,effect on the expression of pNFκB,"phosphorylated NF-κB; only the peptide, without LPS",no effect
same,expression of plkBa,phosphorylated IκBα; [3],suppressed
same,effect on the expression of plkBa,"phosphorylated IκBα; only the peptide, without LPS",no effect
same,survival rate of bacteria,"[1]; at 250 μM or more, 24 hours",less than or equal to 50%
same,survival rate compared to minocycline,[1]; peptide 500 μM vs minocycline 500 ng/ml,"higher than when treated with minocycline 500 ng/ml, but showed a similar effect"
same,effect compared to minocycline,"Porphyromonas gingivalis; all concentration ranges (100, 250, 500 μM) vs minocycline 500 ng/ml",better effect than minocycline
same,survival rate of bacteria,"Porphyromonas gingivalis; at 100 μM or more, 24 hours",less than or equal to 50%
same,concentration at which killed bacteria (red) were observed in biofilm,[2],≥ 50 µg/mL
same,concentration dependence of fluorescence intensity in cells,Raw264.7 cells,"as the concentration of peptide increased, the intensity of fluorescence also increased"
same,fluorescence of rhodamine B in cells,Raw264.7 cells,fluorescence of rhodamine B (red) could be confirmed
